# Measurements reported in ChEMBL document CHEMBL3045339, “Synthesis of benzoxazoles, benzothiazoles and benzimidazoles and evaluation of their antifungal, insecticidal and herbicidal activities” (1992).
# Assays:
# Type in all cases: functional
# Echinochloa crus-galli [1] = assay: Herbicidal activity against Echinochloa crus-galli (barnyard grass) assessed as disease control at 1000 ppm treated in soil during 15 to 20 days relative to control
# Botrytis cinerea = assay: Antifungal activity against Botryotinia fuckeliana after 7 days; design: concentration or dose not given beside the values
# Persicaria hydropiper [2] = assay: Herbicidal activity against Persicaria hydropiper assessed as disease control at 1000 ppm treated in foliage during 15 to 20 days relative to control
# Amaranthus viridis [3] = assay: Herbicidal activity against Amaranthus viridis assessed as disease control at 1000 ppm treated in soil during 15 to 20 days relative to control
# Echinochloa crus-galli [4] = assay: Herbicidal activity against Echinochloa crus-galli (barnyard grass) assessed as disease control at 1000 ppm treated in paddy field during 15 to 20 days relative to control
# Cyperus compressus = assay: Herbicidal activity against Cyperus compressus assessed as disease control at 1000 ppm treated in paddy field during 15 to 20 days relative to control
# Pyricularia oryzae = assay: Antifungal activity against Magnaporthe oryzae after 7 days; design: concentration or dose not given beside the values
# Chenopodium album [5] = assay: Herbicidal activity against Chenopodium album assessed as disease control at 1000 ppm treated in foliage during 15 to 20 days relative to control
# Eleusine indica [6] = assay: Herbicidal activity against Eleusine indica assessed as disease control at 1000 ppm treated in soil during 15 to 20 days relative to control
# [7] = test system: Pseudoperonospora cubensis; assay: Antifungal activity against Pseudoperonospora cubensis after 7 days; design: concentration or dose not given beside the values
# Eleusine indica [8] = assay: Herbicidal activity against Eleusine indica assessed as disease control at 1000 ppm treated in foliage during 15 to 20 days relative to control
# Oryza sativa = assay: Herbicidal activity against Oryza sativa assessed as disease control at 1000 ppm treated in paddy field during 15 to 20 days relative to control
# Xanthomonas axonopodis = assay: Antibacterial activity against Xanthomonas axonopodis after 7 days; design: concentration or dose not given beside the values
# Fusarium fujikuroi = assay: Antifungal activity against Fusarium fujikuroi after 7 days; design: concentration or dose not given beside the values
# Chenopodium album [9] = assay: Herbicidal activity against Chenopodium album assessed as disease control at 1000 ppm treated in soil during 15 to 20 days relative to control
# Persicaria hydropiper [10] = assay: Herbicidal activity against Persicaria hydropiper assessed as disease control at 1000 ppm treated in soil during 15 to 20 days relative to control
# Amaranthus viridis [11] = assay: Herbicidal activity against Amaranthus viridis assessed as disease control at 1000 ppm treated in foliage during 15 to 20 days relative to control
# Echinochloa crus-galli [12] = assay: Herbicidal activity against Echinochloa crus-galli (barnyard grass) assessed as disease control at 1000 ppm treated in foliage during 15 to 20 days relative to control
# Pseudomonas aeruginosa = assay: Antibacterial activity against Pseudomonas aeruginosa after 48 hr
# Escherichia coli = assay: Antibacterial activity against Escherichia coli after 48 hr
# Bacillus subtilis = assay: Antibacterial activity against Bacillus subtilis after 48 hr
Compound,Activity (Echinochloa crus-galli [1]) [%],Activity (Botrytis cinerea) [%],Activity (Persicaria hydropiper [2]) [%],Activity (Amaranthus viridis [3]) [%],Activity (Echinochloa crus-galli [4]) [%],Activity (Cyperus compressus) [%],Activity (Pyricularia oryzae) [%],Activity (Chenopodium album [5]) [%],Activity (Eleusine indica [6]) [%],Activity [7] [%],Activity (Eleusine indica [8]) [%],Activity (Oryza sativa) [%],Activity (Xanthomonas axonopodis) [%],Activity (Fusarium fujikuroi) [%],Activity (Chenopodium album [9]) [%],Activity (Persicaria hydropiper [10]) [%],Activity (Amaranthus viridis [11]) [%],Activity (Echinochloa crus-galli [12]) [%],other results
c1ccc2nc(-c3nc4ccccc4o3)ccc2c1,<39,<39,<39,<39,<39,<39,<39,<39,<39,<39,<39,40,<39,<39,<39,<39,<39,<39,–
c1ccc(-c2nc3ccccc3o2)nc1,<39,<39,<39,<39,<39,40,<39,<39,<39,<39,<39,<39,<39,<39,<39,<39,<39,<39,–
c1ccc2nc(-c3nc4ccccc4[nH]3)ccc2c1,–,–,–,–,–,–,–,–,–,–,–,–,–,–,–,–,–,–,MIC (Pseudomonas aeruginosa): 100 µg/mL
COc1ccc2sc(-c3ccncc3)nc2c1,<39,<39,<39,<39,<39,60,<39,<39,<39,<39,<39,<39,<39,<39,<39,<39,<39,<39,–
CCOc1ccc2sc(-c3ccncc3)nc2c1,<39,<39,<39,<39,<39,>80,<39,<39,<39,<39,<39,<39,<39,<39,<39,<39,<39,<39,–
c1ccc2nc(-c3nc4ccccc4s3)ccc2c1,<39,<39,<39,<39,<39,<39,<39,<39,<39,<39,<39,<39,<39,<39,<39,<39,<39,<39,–
c1ccc2oc(-c3nc4ccccc4s3)nc2c1,<39,<39,<39,<39,<39,<39,<39,<39,<39,<39,<39,<39,<39,<39,<39,<39,<39,<39,–
c1ccc2oc(-c3ccncc3)nc2c1,<39,40,<39,<39,40,<39,<39,<39,<39,<39,<39,<39,<39,60,<39,<39,<39,<39,–
COc1ccc2[nH]c(-c3ccncc3)nc2c1,<39,60,<39,<39,<39,<39,>80,<39,<39,40,<39,<39,60,<39,<39,<39,<39,<39,–
Cc1cccc2[nH]c(-c3ccccn3)nc12,<39,60,<39,<39,<39,<39,40,<39,<39,<39,<39,<39,<39,<39,<39,<39,<39,<39,–
O=[N+]([O-])c1cccc2nc(-c3ccccn3)[nH]c12,<39,<39,<39,<39,<39,<39,40,<39,<39,<39,<39,<39,<39,<39,<39,<39,<39,<39,–
Clc1ccc2sc(-c3ccccn3)nc2c1,<39,<39,<39,<39,<39,>80,<39,40,<39,<39,<39,<39,<39,<39,<39,<39,60,<39,–
COc1ccc2sc(-c3ccccn3)nc2c1,<39,<39,<39,<39,<39,60,<39,<39,<39,<39,<39,40,<39,<39,<39,<39,40,<39,–
CCOc1ccc2sc(-c3ccccn3)nc2c1,<39,<39,<39,<39,40,40,<39,60,<39,<39,<39,<39,<39,<39,<39,<39,40,<39,–
Cc1ccc2nc(-c3ccccn3)[nH]c2c1,<39,<39,<39,<39,<39,<39,60,60,<39,60,<39,<39,40,<39,<39,<39,40,<39,MIC (Escherichia coli): 50 µg/mL; MIC (Bacillus subtilis): 100 µg/mL
c1ccc2[nH]c(-c3ccncc3)nc2c1,–,–,–,–,–,–,–,–,–,–,–,–,–,–,–,–,–,–,MIC (Pseudomonas aeruginosa): 100 µg/mL
c1ccc(-c2nc3ccccc3[nH]2)nc1,<39,60,<39,<39,<39,<39,<39,<39,<39,>80,<39,<39,60,<39,<39,<39,<39,<39,MIC (Pseudomonas aeruginosa): 100 µg/mL; MIC (Bacillus subtilis): 100 µg/mL
